Results on 10 compounds are retold here after ChEMBL document CHEMBL1201862, “PubChem BioAssay data set” (2004).

Structures are written as SMILES.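 These data come from cells grown in 96-well plates and exposed to compound for 48 hours at five concentrations. GI50 is the concentration that inhibits growth by half.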 Active and inactive are the calls of the source. Cut-off read from the data, not from the text of the source: active = GI50 up to about 1.1 µM and inactive = higher. Where a SMILES comes first, the peptide text is derived from it. [ ]: non-standard residue; d: D form. The star is where a group is joined. ξ: configuration not given here. ξPhe(4-NO2) = NC(Cc1ccc([N+](=O)[O-])cc1)C(=O)O; Boc = CC(C)(C)OC(=O)*; OBn = c1ccc(CO*)cc1

Test systems include HCC 2998; HCT-15; U-251; EKVX; RXF 393; A498; SF-295; K562; SK-MEL-2; SR; PC-3; SW-620; DU-145; HOP-92; HT-29; MCF7; NCI/ADR-RES; M14; NCI-H460.
Experiment in all cases: NCI anticancer screen, dose series, 48 h

In the case of `CN(CCc1ccc(Cl)c(Cl)c1)[C@H]1CCCC[C@H]1N1CCCC1`, the GI50 in the experiment with HCC 2998 was > 100 µM (inactive); with HCT-15, > 100 µM; in the experiment with U-251, > 100 µM (inactive); in the experiment with EKVX, > 100 µM (inactive); with RXF 393 it was > 100 µM (inactive); in the experiment on A498 it was > 100 µM (inactive). In addition, the GI50 with SF-295, in the experiment on K562, in the experiment on SK-MEL-2, in the experiment on SR, in the experiment on PC-3 and in the experiment with SW-620 was > 100 µM (inactive) throughout. Also, the GI50 in the experiment with DU-145, with HOP-92, with HT-29, in the experiment with MCF7, in the experiment on NCI/ADR-RES and with M14 was > 100 µM (inactive) throughout.
In the case of `c1cc(-c2ccc(-c3ccc(-c4ccc(-c5ccncc5)o4)cc3)o2)ccn1`, the GI50 with HCC 2998 was 18.2 µM (inactive); with HCT-15, 15.1 µM; in the experiment with U-251 it was 17.5 µM (inactive); in the experiment with EKVX, 22.4 µM (inactive); in the experiment with RXF 393, > 100 µM (inactive); with NCI-H460, 15.2 µM (inactive). Moreover, the GI50 in the experiment on A498 was > 100 µM (inactive); with SF-295 it was 15 µM (inactive); in the experiment on K562, 15.7 µM (inactive); with SR it was 24.1 µM (inactive); in the experiment with PC-3, 18.7 µM (inactive); in the experiment with SW-620, 28.2 µM (inactive). The GI50 with DU-145 was 15 µM (inactive); with HOP-92, 30.5 µM (inactive); in the experiment with HT-29 it was 11.8 µM (inactive); with MCF7, 18.8 µM (inactive); in the experiment on NCI/ADR-RES, 31.2 µM (inactive); in the experiment with M14, 17.7 µM (inactive).
As for `CC1(C)CC(=O)c2c(N)n[nH]c2C1`, the GI50 with HCC 2998, in the experiment with U-251, with EKVX, in the experiment with RXF 393, in the experiment on NCI-H460 and in the experiment on A498 was > 100 µM (inactive) throughout. For the same compound, the GI50 with SF-295, in the experiment on K562, with SK-MEL-2, with SR, in the experiment with PC-3 and in the experiment on SW-620 was > 100 µM (inactive) each time. Besides, the GI50 in the experiment with DU-145, with HOP-92, with HT-29, in the experiment with MCF7, in the experiment on NCI/ADR-RES and in the experiment on M14 was > 100 µM (inactive) each time.
For `C=C1CC[C@@]2(OC1)OC1C[C@H]3[C@@H]4CC=C5C[C@@H](O)CC(OC6OCC(OC(=O)[C@@H](O)[C@@H](C)CC)C(OC(C)=O)C6OC6OC(C)C(O)C(O)C6O)[C@]5(C)[C@H]4CC[C@]3(C)C1[C@@H]2C` (some centres undefined), the GI50 in the experiment on HCC 2998 was 1.6 µM (inactive); in the experiment with HCT-15 it was 1.91 µM; with U-251 it was 1.75 µM (inactive); in the experiment with EKVX it was 2.34 µM (inactive); with RXF 393, 1.93 µM (inactive); with NCI-H460, 1.72 µM (inactive). The GI50 in the experiment with A498 is 1.81 µM (inactive); with SF-295, 1.75 µM (inactive); in the experiment with K562 it was 2.01 µM (inactive); in the experiment on SK-MEL-2 it was 1.57 µM (inactive); in the experiment with SR, 2.07 µM (inactive); with PC-3, 1.67 µM (inactive). Also, the GI50 in the experiment on SW-620 is 2.1 µM (inactive); in the experiment on DU-145 it was 2.07 µM (inactive); with HOP-92 it was 3.3 µM (inactive); in the experiment with HT-29, 2.82 µM (inactive); in the experiment with MCF7, 1.84 µM (inactive); in the experiment on NCI/ADR-RES, 2.32 µM (inactive). Further, the GI50 in the experiment on M14 was 2.11 µM (inactive).
Regarding `CCCCCCCCOC(=O)C12Oc3ccc(-c4ccc5c(c4O)C(=O)C4=C(O)CC(C)C(O)C4(C(=O)OCCCCCCCC)O5)c(O)c3C(=O)C1=C(O)CC(C)C2O` (centres undefined), the GI50 with HCC 2998 is 28.9 µM (inactive); with HCT-15 it was 25 µM; in the experiment with U-251, 4.06 µM (inactive); in the experiment with EKVX, 28.5 µM (inactive); in the experiment on RXF 393, 2.7 µM (inactive); with NCI-H460 it was 4.66 µM (inactive). The GI50 in the experiment on A498 was 23.5 µM (inactive); in the experiment with SF-295, 8.41 µM (inactive); in the experiment with K562 it was 2.93 µM (inactive); with SK-MEL-2, 7.87 µM (inactive); in the experiment on SR it was 4.26 µM (inactive); in the experiment with PC-3, 23.2 µM (inactive). In addition, the GI50 in the experiment on SW-620 was 6.85 µM (inactive); in the experiment on DU-145 it was 34.4 µM (inactive); in the experiment with HOP-92 it was 8.45 µM (inactive); in the experiment on HT-29, 27.2 µM (inactive); with MCF7, 11.4 µM (inactive); in the experiment with NCI/ADR-RES, 30.7 µM (inactive). The GI50 with M14 is 26.2 µM (inactive).
Take `Nc1nc(Cl)cc(NCC2(CO)CC(OCc3ccccc3)C2)n1` (centres undefined): the GI50 in the experiment with HCC 2998 was > 100 µM (inactive); in the experiment with HCT-15, 65.6 µM; with U-251, 90.4 µM (inactive); in the experiment on EKVX it was 7.82 µM (inactive); with RXF 393 it was 14.2 µM (inactive); in the experiment with NCI-H460 it was 78.7 µM (inactive). Also, the GI50 with A498 is 16.9 µM (inactive); in the experiment on SF-295 it was > 100 µM (inactive); in the experiment on K562, 14.6 µM (inactive); in the experiment on SK-MEL-2, > 100 µM (inactive); in the experiment on SR it was 25.1 µM (inactive); in the experiment with PC-3, > 100 µM (inactive). The GI50 in the experiment with SW-620 is > 100 µM (inactive); in the experiment on DU-145 it was > 100 µM (inactive); with HOP-92 it was > 100 µM (inactive); in the experiment with HT-29 it was > 100 µM (inactive); with MCF7 it was 30.7 µM (inactive); with NCI/ADR-RES, 36.1 µM (inactive).
`O=[N+]([O-])c1ccc2c(c1)n1c(N3CCCC3)[n+]3ccccc3c1c1c3ccccn3c(N3CCCC3)[n+]21.[O-][Cl+3]([O-])([O-])[O-].[O-][Cl+3]([O-])([O-])[O-]`: the GI50 with HCC 2998 was > 100 µM (inactive); in the experiment on HCT-15, > 100 µM; with U-251, 36.7 µM (inactive); with EKVX, > 100 µM (inactive); in the experiment with RXF 393 it was > 100 µM (inactive); with NCI-H460, > 100 µM (inactive). For the same compound, the GI50 was > 100 µM (inactive) in the experiment with A498; 61.4 µM (inactive) with SF-295; 23.7 µM (inactive) with K562; > 100 µM (inactive) with SK-MEL-2; > 100 µM (inactive) with SR; > 100 µM (inactive) in the experiment with PC-3. The GI50 was 65.9 µM (inactive) in the experiment on SW-620; > 100 µM (inactive) with DU-145; > 100 µM (inactive) in the experiment on HOP-92; 9.46 µM (inactive) in the experiment with MCF7; > 100 µM (inactive) in the experiment with NCI/ADR-RES; > 100 µM (inactive) in the experiment on M14.
For the compound `FC(F)(F)c1nc2ccc(SSc3ccc4nc(C(F)(F)F)[nH]c4c3)cc2[nH]1`, the GI50 in the experiment on HCC 2998 was 38.3 µM (inactive); in the experiment with HCT-15, 93.5 µM; in the experiment with U-251, 84.1 µM (inactive); with EKVX, > 10 µM (inactive); with RXF 393, > 10 µM (inactive); in the experiment with NCI-H460, 24.5 µM (inactive). In addition, the GI50 is > 10 µM (inactive) with A498; 4.41 µM (inactive) in the experiment on SF-295; 31.9 µM (inactive) with K562; > 10 µM (inactive) with SK-MEL-2; 30.7 µM (inactive) in the experiment on SR; 36.6 µM (inactive) with PC-3. Besides, the GI50 in the experiment on SW-620 was 61.1 µM (inactive); in the experiment on DU-145 it was > 10 µM (inactive); in the experiment with HOP-92, > 10 µM (inactive); in the experiment on HT-29, > 10 µM (inactive); with MCF7 it was 35.7 µM (inactive); with NCI/ADR-RES, > 10 µM (inactive). The GI50 with M14 was 94.2 µM (inactive).
Take `Cc1ccc2c(O)cc(-c3ccc(C)s3)nc2n1`: the GI50 is 0.805 µM (active) in the experiment with HCC 2998; 0.0863 µM in the experiment with HCT-15; 0.413 µM (active) in the experiment on U-251; 2.95 µM (inactive) in the experiment with EKVX; 0.656 µM (active) in the experiment on RXF 393; 0.456 µM (active) in the experiment with NCI-H460. Moreover, the GI50 is 0.762 µM (active) in the experiment on A498; 0.267 µM (active) in the experiment on SF-295; 0.423 µM (active) in the experiment on K562; 59.3 µM (inactive) in the experiment with SK-MEL-2; 0.0893 µM (active) in the experiment with SR; 0.234 µM (active) in the experiment on PC-3. Further, the GI50 in the experiment with SW-620 was 0.106 µM (active); in the experiment on DU-145, 0.993 µM (active); with HOP-92, 5.21 µM (inactive); in the experiment with HT-29, 0.526 µM (active); with MCF7 it was 0.27 µM (active); in the experiment on NCI/ADR-RES, 0.129 µM (active). Besides, the GI50 in the experiment with M14 was 0.303 µM (active).
For `CC(C)(C)OC(=O)NC(Cc1ccc([N+](=O)[O-])cc1)C(=O)NCC(=O)OCc1ccccc1` (centres undefined) (Boc-[ξPhe(4-NO2)]-Gly-OBn), the GI50 in the experiment on HCC 2998 was 19.6 µM (inactive); in the experiment with HCT-15, 19.4 µM; with U-251, 20.7 µM (inactive); with EKVX, > 100 µM (inactive); with RXF 393, 22.2 µM (inactive); with NCI-H460, 21.9 µM (inactive). The GI50 in the experiment with A498 is 38.6 µM (inactive); in the experiment with SF-295 it was 20.5 µM (inactive); in the experiment with K562, 15 µM (inactive); in the experiment on SR, 31.6 µM (inactive); in the experiment on PC-3, 17.2 µM (inactive); in the experiment on SW-620, 29.6 µM (inactive). Also, the GI50 in the experiment on DU-145 was 30.1 µM (inactive); in the experiment on HOP-92 it was 34 µM (inactive); in the experiment on HT-29, 25.5 µM (inactive); in the experiment on MCF7 it was 28.2 µM (inactive); in the experiment on NCI/ADR-RES, 42 µM (inactive); with M14, 19.5 µM (inactive).
